Usually inhibition stands for the relative decrease from the control value, in per cent. The term half-life denotes the time needed for the level to fall by half in the phase considered. As usually defined, the IC50 is the midpoint of a concentration-inhibition curve. Broadly, the fraction unbound is the share of the substance not bound to proteins or other matrix.

Molecules are shown by their SMILES.

One data set addresses CYP2D6 (Homo sapiens, UniProt P10635). As to the kind of experiment: Cyp inhibition 2D6. Type of data set: in vitro ADME. As for the experimental part: (§1) In vitro ADMET of compounds of the present disclosure was carried out according to known methods in the art. Below are data for certain compounds of the present disclosure.
The target in another data set is T1, CYP1A2 (Homo sapiens, UniProt P05177).
T1 sequence (P05177 1-516): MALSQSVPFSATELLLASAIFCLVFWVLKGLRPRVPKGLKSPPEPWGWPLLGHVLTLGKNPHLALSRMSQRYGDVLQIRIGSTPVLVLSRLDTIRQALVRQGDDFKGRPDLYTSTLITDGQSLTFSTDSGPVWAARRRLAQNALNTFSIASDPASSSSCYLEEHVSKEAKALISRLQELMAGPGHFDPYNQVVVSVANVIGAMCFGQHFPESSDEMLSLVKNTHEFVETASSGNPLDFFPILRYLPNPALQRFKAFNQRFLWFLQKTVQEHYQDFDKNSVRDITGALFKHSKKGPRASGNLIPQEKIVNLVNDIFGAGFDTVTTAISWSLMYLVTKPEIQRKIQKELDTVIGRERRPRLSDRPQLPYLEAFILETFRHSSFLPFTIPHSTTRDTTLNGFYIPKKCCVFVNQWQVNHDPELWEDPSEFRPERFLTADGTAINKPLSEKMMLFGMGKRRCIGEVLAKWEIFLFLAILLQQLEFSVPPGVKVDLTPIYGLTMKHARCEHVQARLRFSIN
Kind of data set: Cyp inhibition 1A2. Format: in vitro ADME. Further details: inhibition: dose or concentration left out as unconfirmed. How it is done:
as §1

The target in another data set is T2, human ALDH2 wild type (Homo sapiens, UniProt P05091).
T2 construct: His-tag (pTrcHis vector) (N); made in house; host or cells: E. coli BL21
T2 sequence (P05091 18-517): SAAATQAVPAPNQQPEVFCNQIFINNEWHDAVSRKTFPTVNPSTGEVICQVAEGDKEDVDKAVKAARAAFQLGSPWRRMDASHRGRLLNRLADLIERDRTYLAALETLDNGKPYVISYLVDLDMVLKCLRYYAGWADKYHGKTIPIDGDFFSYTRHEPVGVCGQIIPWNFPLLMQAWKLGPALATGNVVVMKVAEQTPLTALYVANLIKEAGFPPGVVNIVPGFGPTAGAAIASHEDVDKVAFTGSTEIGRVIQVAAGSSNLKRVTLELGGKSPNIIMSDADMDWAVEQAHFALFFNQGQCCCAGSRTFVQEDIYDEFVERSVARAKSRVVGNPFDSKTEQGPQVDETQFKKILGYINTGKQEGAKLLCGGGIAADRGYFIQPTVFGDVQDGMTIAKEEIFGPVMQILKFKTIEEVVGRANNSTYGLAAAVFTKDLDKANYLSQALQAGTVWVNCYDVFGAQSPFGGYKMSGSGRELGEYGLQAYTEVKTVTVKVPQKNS
As to the kind of experiment: ALDH2 enzymatic assay (NADH at 340 nm), recombinant wild type enzyme. Format: biochemical. Also on record: key: −: no activation or inhibition; +: activation less than control 1; ++: activation similar to control 1, within 10%; +++: activation more than control 1 and less than control (compound 161); ++++: activation similar to compound 161, within 10%. The settings on record: activation relative to benchmarks control 1 and compound 161.

Data set [1] has as its system mice treated with PO 5 g/kg of EtOH. Kind of data set: Mouse pharmacodynamics (PD) study after EtOH. Format: in vivo. How it is done:
Mice (male C57BL6 (8 to 9 weeks, 20-22 g)) were treated with PO […] of EtOH. Then PO 40 mg/kg or 60 mg/kg compound 161 were administered to the mice. […] FIG. 6 is a graph showing the behavior of mice at 120 min, 180 min, and 300 min. FIG. 7 is a graph showing the alcohol concentration (mg/dL) at 75 min and 180 min.
A PD study of IV administration of compound 161 was also carried out. The mice were treated with PO 5 g/kg of alcohol and were then treated with 10 mg/kg of compound 161 administered through IV. […] FIG. 8 is a graph showing the blood alcohol concentration (mg/dL) versus time (hr).

A short description of the next data set: Plasma stability, rat. Format: in vitro ADME. How it is done: as §1
The nature of another data set: Plasma stability, human. Format: in vitro ADME. As for the experimental part: as §1
The nature of another data set: NHPLM stability T1/2. Format: in vitro ADME. Particulars: monkey, liver microsomes. How it is done:
as §1
(In general: Liver microsomes are a subcellular fraction often used to study metabolism.)

For the next data set, the target named is hERG channel (Homo sapiens, UniProt Q12809). As to the kind of experiment: hERG channel patch-clamp. Format: cell-based. A general note: Block of hERG is tested as a sign of cardiac risk.
Sequence of hERG channel (Q12809 whole entry): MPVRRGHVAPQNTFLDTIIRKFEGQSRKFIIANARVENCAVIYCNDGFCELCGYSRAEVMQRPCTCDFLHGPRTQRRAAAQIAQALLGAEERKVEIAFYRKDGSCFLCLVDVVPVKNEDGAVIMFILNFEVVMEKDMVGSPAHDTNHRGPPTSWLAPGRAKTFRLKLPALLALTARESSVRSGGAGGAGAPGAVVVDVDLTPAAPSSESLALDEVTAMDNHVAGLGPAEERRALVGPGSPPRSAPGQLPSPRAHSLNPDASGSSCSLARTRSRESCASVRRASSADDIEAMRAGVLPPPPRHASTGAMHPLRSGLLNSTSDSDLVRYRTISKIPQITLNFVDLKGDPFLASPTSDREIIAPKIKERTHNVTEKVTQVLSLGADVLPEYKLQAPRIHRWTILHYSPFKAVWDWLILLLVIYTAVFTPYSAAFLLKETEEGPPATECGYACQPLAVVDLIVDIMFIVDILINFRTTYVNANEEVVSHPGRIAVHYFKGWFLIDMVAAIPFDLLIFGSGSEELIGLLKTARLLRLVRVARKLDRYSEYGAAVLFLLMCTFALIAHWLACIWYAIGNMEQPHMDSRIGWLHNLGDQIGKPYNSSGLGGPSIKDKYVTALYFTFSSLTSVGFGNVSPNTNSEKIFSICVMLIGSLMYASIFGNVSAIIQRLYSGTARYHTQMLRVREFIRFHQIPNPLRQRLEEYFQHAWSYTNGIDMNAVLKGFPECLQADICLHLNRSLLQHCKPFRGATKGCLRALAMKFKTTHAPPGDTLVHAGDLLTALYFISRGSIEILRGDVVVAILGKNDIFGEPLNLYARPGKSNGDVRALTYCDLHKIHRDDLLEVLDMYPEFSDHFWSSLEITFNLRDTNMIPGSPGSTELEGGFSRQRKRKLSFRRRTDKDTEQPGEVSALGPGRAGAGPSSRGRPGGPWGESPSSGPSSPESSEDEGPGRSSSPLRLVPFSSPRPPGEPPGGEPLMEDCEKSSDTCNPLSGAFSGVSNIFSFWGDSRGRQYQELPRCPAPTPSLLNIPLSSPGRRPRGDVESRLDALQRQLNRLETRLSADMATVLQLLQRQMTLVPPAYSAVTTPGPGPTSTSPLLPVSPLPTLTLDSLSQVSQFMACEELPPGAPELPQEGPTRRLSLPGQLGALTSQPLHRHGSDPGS
Data set [2] is described as follows: Plasma protein binding (PPB), human. Format: in vitro ADME. How it is done: as §1

Sequence of CYP2D6 (P10635 whole entry): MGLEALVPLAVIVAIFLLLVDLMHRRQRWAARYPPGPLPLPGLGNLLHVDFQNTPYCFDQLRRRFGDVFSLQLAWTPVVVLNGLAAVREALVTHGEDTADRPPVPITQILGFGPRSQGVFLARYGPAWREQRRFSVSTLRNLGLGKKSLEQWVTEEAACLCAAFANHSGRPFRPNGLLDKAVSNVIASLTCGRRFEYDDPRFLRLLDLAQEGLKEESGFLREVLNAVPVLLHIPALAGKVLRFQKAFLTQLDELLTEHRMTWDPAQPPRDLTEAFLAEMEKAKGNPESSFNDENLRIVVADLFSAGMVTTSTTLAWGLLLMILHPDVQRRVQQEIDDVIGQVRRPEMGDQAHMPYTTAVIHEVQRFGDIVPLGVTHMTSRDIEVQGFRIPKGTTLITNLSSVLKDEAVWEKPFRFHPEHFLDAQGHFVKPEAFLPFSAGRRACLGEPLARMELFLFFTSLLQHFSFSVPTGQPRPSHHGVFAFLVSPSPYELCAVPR

As for `COc1ccc(CNC(=O)c2c(Cl)ccnc2OCC2CC2)cc1F` [Compound 161], the inhibition at 10 µM on CYP2D6 stood at 6.4%; against CYP1A2 (10 μM), 35.2%. Besides, on CYP1A2, the inhibition came to 35%. For the same compound, at human ALDH2 wild type, the “ALDH2 (wild-type)” value is “++++”. The blood alcohol levels entry in [1] (PO 5 g/kg EtOH, compound PO 40 mg/kg or 60 mg/kg) was “reduces blood alcohol levels”; in [1] (PO 5 g/kg alcohol, compound 10 mg/kg IV), “reduces blood alcohol levels”. The “PD response (behavior observation)” value in data set [1] (PO EtOH, then PO 40 mg/kg or 60 mg/kg) is reported as “significant PD response”. In the data set “Plasma stability, rat”, the Plasma stability Rat worked out at 100%. Moreover, in “Plasma stability, human” (5 h), the “plasma stability (human, 5 h)” value is listed as 100%. In the data set “Plasma stability, human” (plasma), this compound had a Plasma stability Human of 100%. In addition, in “NHPLM stability T1/2”, the half-life was found to be 2.54 min. The compound also showed an IC50 at hERG channel greater than 30 µM. Moreover, in data set [2], the fraction unbound was 0.007.
